Source: patent US11147855B2, “Methods for treating glaucoma or ocular hypertension comprising delivery of prostaglandins to the vitreous humour” (Cella Therapeutics, LLC, priority 2018, dated 2021)

Tested on: African Green monkeys
Assay: IOP after intravitreal injection in African Green monkeys, compared with PBS in the fellow eye
Type: in vivo, African Green monkey
Settings: for animals responding with a reduction in IOP of ≥30%: 4 animals
Method: Eight African Green monkeys were screened to identify 4 animals with high-normal IOP. Animals were anesthetized with ketamine 10 mg/kg and Xylazine 0.5 mg/kg. Bimatoprost acid 100 ng in 50 μl was injected intravitreally in one eye through a 30-gauge syringe using a shelved technique, and 50 μl of phosphate buffered saline (PBS) was injected into the fellow eye as a concurrent control on days 0, 1, 2 at 8:30 pm. The bimatoprost acid dose was escalated to 200 ng in 100 μl, with the same volume of PBS given to the fellow eye, on days 3 (8:30 pm) and 4 (5:30 pm). IOP was measured with a Tonovet tonometer at 8:30 am, 11:30 am and 8:30 pm on day 1; 8:30 am, 11:30 am and 5:30 pm on day 4; and at 8:30 am on days 2, 3 and 5. The person measuring the IOP was masked to treatment assignment. Slit lamp exams were performed on day 0, 1 and 5. OCTs were performed at baseline and day 5.

**Q.** Which “animals responding with a reduction in IOP of ≥30%” value (100 ng dose intravitreal) does the source give for `O=C(O)CCC/C=C\C[C@@H]1[C@@H](/C=C/[C@@H](O)CCc2ccccc2)[C@H](O)C[C@@H]1O` [bimatoprost acid] here?
**A.** One of four

**Q.** And the “reduction in IOP compared with the fellow eye” value (100 ng in 50 μl intravitreal, days 0, 1, 2, animal B392, at 1 timepoint)?
**A.** ≥ 30%

**Q.** What about the “animals responding with a reduction in IOP of ≥30%” value (200 ng dose intravitreal) of the same compound?
**A.** Three of four

**Q.** What about the “IOP reduced in the treated eye compared with the fellow eye receiving PBS” value (200 ng dose, animal B392, day 5) of the same compound?
**A.** 52%

**Q.** And the “reduction in IOP compared with the fellow eye” value (200 ng in 100 μl intravitreal, days 3 and 4, responding animals, at 1 or more timepoints)?
**A.** ≥ 30%

**Q.** What about the IOP response (animal B300, 100 ng and 200 ng doses) of the same compound?
**A.** did not respond to either dose
